From paper PMC9850456, “Click-designed vanilloid-triazole conjugates as dual inhibitors of AChE and Aβ aggregation” (RSC Advances, 2023)

Assays:
Beta-Amyloid (1–42) = target: T1, Beta-Amyloid (1–42) (Homo sapiens, UniProt P05067); experiment: biochemical; conditions: Aβ aggregation, Thioflavin T; mean ± standard deviation; read-out: IC50 ± SD Aβ42 inhibition
T1 construct: SensoLyte® Thioflavin T Beta-Amyloid (1–42) Aggregation Kit; purchased ANASPEC Inc., Fremont, CA, USA
Protocol: The β-amyloid aggregation inhibition was measured using the fluorometric SensoLyte® Thioflavin T Beta-Amyloid (1–42) Aggregation Kit (ANASPEC Inc., Fremont, CA., USA) according to the manufacturer's instructions. […]
2. In Vitro Amyloid-β Aggregation Assay
Amyloid-β (1–42) aggregation was measured using the SensoLyte ® Thioflavin T β-Amyloid aggregation kit (AnaSpec, Fremont, CA, USA) 2, according to the manufacturer’s instructions. The assay is based on the property of the Thioflavin T dye, the fluorescence of which increases when it is bound to aggregates of amyloid-β (1 –42) peptides. Briefly, Thioflavin T was dissolved in assay buffer [10 mM Phosphate/150 mM NaCl (pH=8.0)] and used at a concentration of 100 μM. Samples were dissolved in assay buffer, 5 μL of the sample and 85 μL of amyloid-β (1–42) were mixed, followed by the addition of 10 μL of 2mM Thioflavin T.
Thioflavin T fluorescence was measured at intervals of 10 min for 2 h, with an excitation /emission =440 […]
All fluorescence readings are expressed in relative fluorescence units (RFU).
Morin was used as a positive control. Experiments were performed in triplicate and averaged, and the percentage of inhibition of amyloid-β aggregation was calculated according to the following equation:
% Relative Inhibition = (RFU of PC - RFU of S)/ ([…]) x 100
Where: PC, is the Peptide Positive Control or Solvent Control; S, is Sample Screen.
IC50 was generated by plotting the values of percent inhibition against their corresponding logarithmic concentration. Best fitted line was determined and IC50 was calculated from its equation.

hAChE = target: T2, hAChE (Homo sapiens, UniProt P22303); experiment: biochemical; conditions: mean ± standard deviation; read-out: IC50 ± SD AChE
T2 construct: purchased BioVision ('Bio Vision, Egypt' [sic]; address 155 S. Milpitas Blvd., Milpitas, CA) K197-100
Protocol: The synthesized compounds were assayed to determine their ability to inhibit hAChE using (K197-100, Bio Vision, Egypt)1. A 96-well plate was used by applying the spectroscopic method of Ellman1, and […]
The compounds were dissolved in a small amount of DMSO to obtain a concentration range of 0.01-10 μM. Each well contained 160 μl of dithiobis-(2-nitrobenzoic acid) (Ellman's reagent, DTNB), 10 μl of the tested compound and 50 μl hAChE solution, while Blank wells contained 160 μl DTNB, 10 μl DMSO, and 50 μl buffer (1 M, pH=8.0, Tris-HCl) . 100% ChE activity (100% activity) contained 160 μl DTNB, 2 μl DMSO, 8 μl buffer and 50 μl hAChE. After 5 min of incubation at 25 […]
Two time points (t1 and t2) in the linear range of the plot were chosen and the corresponding values for the absorbance (OD1 and OD2) were obtained.
The percentage of relative inhibition was calculated from the following equation:
% Relative Inhibition = Slope of[ EC]−Slope of [S] /Slope of[EC ] X100
% Relative Activity = Slope of [S] /Slope of [EC] X100
Where: S, is Sample Screen; EC, is Enzyme Control. […]

T2 sequence (P22303 32-614): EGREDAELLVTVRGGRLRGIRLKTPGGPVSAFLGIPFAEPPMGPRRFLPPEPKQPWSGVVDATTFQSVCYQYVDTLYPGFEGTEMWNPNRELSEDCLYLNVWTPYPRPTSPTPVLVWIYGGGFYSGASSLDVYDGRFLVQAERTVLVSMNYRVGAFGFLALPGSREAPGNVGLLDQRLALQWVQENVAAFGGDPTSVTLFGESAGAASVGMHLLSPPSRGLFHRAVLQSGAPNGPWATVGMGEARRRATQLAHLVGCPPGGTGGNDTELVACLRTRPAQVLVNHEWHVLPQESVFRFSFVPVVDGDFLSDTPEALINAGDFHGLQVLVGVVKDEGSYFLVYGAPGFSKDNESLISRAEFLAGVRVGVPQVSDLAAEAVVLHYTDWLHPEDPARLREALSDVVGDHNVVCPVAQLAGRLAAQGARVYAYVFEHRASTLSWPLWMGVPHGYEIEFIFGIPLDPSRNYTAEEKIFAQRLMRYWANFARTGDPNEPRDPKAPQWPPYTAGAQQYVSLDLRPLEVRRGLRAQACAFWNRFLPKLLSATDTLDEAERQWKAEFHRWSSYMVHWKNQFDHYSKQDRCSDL
T1 sequence (P05067 672-713): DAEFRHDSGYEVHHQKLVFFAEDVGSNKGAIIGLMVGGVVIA

Row | SMILES | IC50 (Beta-Amyloid (1–42)) [nM] | IC50 (hAChE) [nM]
1 | COc1cc(Cn2cc(COc3ccc(C=O)cc3OC)nn2)ccc1O [Compound 1, 4-((1-(3-methoxy-4-hydroxybenzyl)-1H-1,2,3-triazol-4-yl)methoxy)-3-methoxybenzaldehyde] | 4850 ± 240 | 14200 ± 720
2 | C=CCc1ccc(OCc2cn(Cc3ccc(O)c(OC)c3)nn2)c(OC)c1 [Compound 2, 4-((4-((4-allyl-2-methoxyphenoxy)methyl)-1H-1,2,3-triazol-1-yl)methyl)-2-methoxyphenol] | 22700 ± 1140 | 26800 ± 1350
3 | COc1cc(Cn2cc(COc3ccc(C=CC=O)cc3OC)nn2)ccc1O [Compound 3, 4-((1-(3-methoxy-4-hydroxybenzyl)-1H-1,2,3-triazol-4-yl)methoxy)-3-methoxyphenyl acrylaldehyde] | 2860 ± 140 | 5530 ± 280
4 | CCOC(=O)c1ccc(OCc2cn(Cc3ccc(O)c(OC)c3)nn2)c(OC)c1 [Compound 4, 4-((1-(3-methoxy-4-hydroxybenzyl)-1H-1,2,3-triazol-4-yl)methoxy)-3-methoxy-ethyl benzoate] | 1590 ± 80 | 2110 ± 120
5 | COc1cc(Cn2cc(COc3ccc(C(=O)O)cc3OC)nn2)ccc1O [Compound 5, 4-((1-(3-methoxy-4-hydroxybenzyl)-1H-1,2,3-triazol-4-yl)methoxy)-3-methoxybenzoic acid] | 1480 ± 70 | 2110
6 | CCOC(=O)C=Cc1ccc(OCc2cn(Cc3ccc(O)c(OC)c3)nn2)c(OC)c1 [Compound 6, ethyl 4-((1-(3-methoxy-4-hydroxybenzyl)-1H-1,2,3-triazol-4-yl)methoxy)-3-methoxyphenyl acrylate] | 3060 ± 150 | 2520 ± 130
7 | COc1cc(Cn2cc(COc3ccc(C=CC(=O)O)cc3OC)nn2)ccc1O [Compound 7, 4-((1-(3-methoxy-4-hydroxybenzyl)-1H-1,2,3-triazol-4-yl)methoxy)-3-methoxyphenyl acrylic acid] | 4480 ± 220 | 10600 ± 530
8 | COc1cc(Cn2cc(COC(=O)c3ccc(O)c(OC)c3)nn2)ccc1O [Compound 8, (1-(4-hydroxy-3-methoxybenzyl)-1H-1,2,3-triazol-4-yl)methyl 4-hydroxy-3-methoxy benzoate] | 950 ± 50 | 1200 ± 60
9 | COc1cc(/C=C/C(=O)OCc2cn(Cc3ccc(O)c(OC)c3)nn2)ccc1O [Compound 9, (E)-(1-(4-hydroxy-3-methoxybenzyl)-1H-1,2,3-triazol-4-yl)methyl 3-(4-hydroxy-3 methoxyphenyl)acrylate] | 310 ± 20 | 470 ± 20
